Measurements taken from patent US10934310B2, “Inhibitors of Bruton's tyrosine kinase and method of their use” (JANSSEN PHARMACEUTICA NV, priority 2015, dated 2021).

molecular target: unphosphorylated-BTK kinase domain (UP-BTK), GST-tagged human BTK (389-659aa) (Homo sapiens (Human), UniProt Q06187); test: BTK Kinase Lanthascreen Binding Assay; conditions: Lanthascreen binding, 60 minutes incubation; pIC50 = negative log of the IC50 in molar
Experimental: BTK Kinase Lanthascreen Binding Assay:
A BTK kinase lanthascreen binding assay monitors compound binding to unphosphorylated-BTK kinase domain (UP-BTK), by competing with a fluorescent labeled tracer. […] Data were analyzed using Xlfit™ version 5.3 from ID Business Solutions (Guildford), Microsoft Excel add-in. pIC50 refers to the negative log of the IC50 in molar.

Sequence of unphosphorylated-BTK kinase domain (UP-BTK), GST-tagged human BTK (389-659aa) (Q06187 389-659): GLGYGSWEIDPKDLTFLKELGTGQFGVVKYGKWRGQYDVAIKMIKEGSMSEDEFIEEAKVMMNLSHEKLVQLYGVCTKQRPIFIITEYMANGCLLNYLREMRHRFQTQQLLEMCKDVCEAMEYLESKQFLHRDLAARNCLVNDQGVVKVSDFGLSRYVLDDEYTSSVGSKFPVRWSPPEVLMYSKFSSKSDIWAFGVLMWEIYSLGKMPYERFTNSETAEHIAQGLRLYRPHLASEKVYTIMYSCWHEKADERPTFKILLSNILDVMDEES

| Structure (SMILES) | BTK_I_binding pIC50 |
| --- | --- |
| CNCC(=O)N[C@@H]1CCCC[C@H]1NC(=O)c1sc2nccc3c2c1NC(=O)N3c1ccc(Oc2ccccc2)cc1C (single isomer, unassigned) [Example 448, 5-(*S)-(2-Methyl-4-phenoxyphenyl)-N-((1R,2R)-2-(2-(methylamino)acetamido)cyclohexyl)-4-oxo-4,5-dihydro-3H-1-thia-3,5,8-triazaacenaphthylene-2-carboxamide] | 6.66 |
| Cc1cc(Oc2ccccc2)ccc1N1C(=O)Nc2c(C(=O)N[C@H]3CCCC[C@H]3NC(=O)CN(C)C)sc3nccc1c23 (single isomer, unassigned) [Example 449, N-((1S,2R)-2-(2-(Dimethylamino)acetamido)cyclohexyl)-5-(*S)-(2-methyl-4-phenoxyphenyl)-4-oxo-4,5-dihydro-3H-1-thia-3,5,8-triazaacenaphthylene-2-carboxamide] | 6.51 |
| Cc1cc(Oc2ccccc2)ccc1N1C(=O)Nc2c(C(=O)N[C@H]3CCCC[C@H]3N)sc3nccc1c23 (single isomer, unassigned) [Example 450, N-((1S,2R)-2-Aminocyclohexyl)-5-(*S)-(2-methyl-4-phenoxyphenyl)-4-oxo-4,5-dihydro-3H-1-thia-3,5,8-triazaacenaphthylene-2-carboxamide] | 6.47 |
| C=CC(=O)N[C@@H]1CCCC[C@@H]1NC(=O)c1sc2nccc3c2c1NC(=O)N3c1ccc(Oc2ccccc2)cc1C (single isomer, unassigned) [Example 451] | 6.40 |
| Cc1cc(Oc2ccccc2)ccc1N1C(=O)Nc2c(C(=O)N[C@H]3CCC[C@H]3N)sc3nccc1c23 (single isomer, unassigned) [Example 452, N-((1S,2R)-2-Aminocyclopentyl)-5-(*S)-(2-methyl-4-phenoxyphenyl)-4-oxo-4,5-dihydro-3H-1-thia-3,5,8-triazaacenaphthylene-2-carboxamide] | 6.38 |
| Cc1cc(CC(C)C)ncc1N1C(=O)Nc2c(C(=O)N[C@@H]3CCC[C@@H]3NC(=O)/C(C#N)=C/C3CC3)sc3nccc1c23 (single isomer, unassigned) [Example 466, N-((1R,2S)-2-((E)-2-Cyano-3-cyclopropylacrylamido)cyclopentyl)-5-(*S)-(6-isobutyl-4-methylpyridin-3-yl)-4-oxo-4,5-dihydro-3H-1-thia-3,5,8-triazaacenaphthylene-2-carboxamide] | 7.63 |

same assay, conditions: compound, 50 nM Tracer 236, 2 nM anti-GST antibody, 60 minutes; pIC50 = negative log of the IC50 in molar

| Structure (SMILES) | BTK_I_binding pIC50 |
| --- | --- |
| C=CC(=O)NC1CCC[C@@H](NC(=O)c2sc3nccc4c3c2NC(=O)N4c2ccc(Oc3ccccc3)cc2C)C1 (stereo in doubt) [Example 2, N-((1R,3S)-3-Acrylamidocyclohexyl)-5-(2-methyl-4-phenoxyphenyl)-4-oxo-4,5-dihydro-3H-1-thia-3,5,8-triazaacenaphthylene-2-carboxamide] | 7.36 |
| C=CC(=O)NC1CCC[C@H]1NC(=O)c1sc2nccc3c2c1NC(=O)N3c1ccnc(-c2ccccc2)c1 (stereo in doubt) [Example 197, N-((1R,2R)-2-Acrylamidocyclopentyl)-4-oxo-5-(2-phenylpyridin-4-yl)-4,5-dihydro-3H-1-thia-3,5,8-triazaacenaphthylene-2-carboxamide] | 7.48 |
| C=CC(=O)N[C@H]1CC[C@@H](NC(=O)c2sc3nccc4c3c2NC(=O)N4c2ccc(Oc3ccccc3)cc2C)CC1 [Example 3, N-((1S,4S)-4-Acrylamidocyclohexyl)-5-(2-methyl-4-phenoxyphenyl)-4-oxo-4,5-dihydro-3H-1-thia-3,5,8-triazaacenaphthylene-2-carboxamide] | 7.42 |
| Cc1cc(Oc2ccccc2)ccc1N1C(=O)Nc2c(C(=O)N[C@@H]3CCC[C@@H]3O)sc3nccc1c23 [Example 6, N-((1R,2S)-2-Hydroxycyclopentyl)-5-(2-methyl-4-phenoxyphenyl)-4-oxo-4,5-dihydro-3H-1-thia-3,5,8-triazaacenaphthylene-2-carboxamide] | 7.48 |
| Cc1cc(Oc2ccccc2)ccc1N1C(=O)Nc2c(C(=O)N[C@@H]3CCC[C@H]3O)sc3nccc1c23 [Example 9, N-((1R,2R)-2-Hydroxycyclopentyl)-5-(2-methyl-4-phenoxyphenyl)-4-oxo-4,5-dihydro-3H-1-thia-3,5,8-triazaacenaphthylene-2-carboxamide] | 7.41 |
| Cc1cc(Oc2ccccc2)ccc1N1C(=O)Nc2c(C(=O)N[C@@H]3CCCC[C@@H]3N)sc3nccc1c23 [Example 10, N-((1R,2S)-2-Aminocyclohexyl)-5-(2-methyl-4-phenoxyphenyl)-4-oxo-4,5-dihydro-3H-1-thia-3,5,8-triazaacenaphthylene-2-carboxamide] | 7.35 |
| CC(=O)N[C@@H]1CCC[C@H]1NC(=O)c1sc2nccc3c2c1NC(=O)N3c1ccc(Oc2ccccc2)cc1C [Example 11, N-((1R,2R)-2-Acetamidocyclopentyl)-5-(2-methyl-4-phenoxyphenyl)-4-oxo-4,5-dihydro-3H-1-thia-3,5,8-triazaacenaphthylene-2-carboxamide] | 7.24 |
| Cc1cc(Oc2ccccc2)ccc1N1C(=O)Nc2c(C(=O)N[C@@H]3CCC[C@@H]3N)sc3nccc1c23 [Example 12, N-((1R,2S)-2-Aminocyclopentyl)-5-(2-methyl-4-phenoxyphenyl)-4-oxo-4,5-dihydro-3H-1-thia-3,5,8-triazaacenaphthylene-2-carboxamide] | 7.03 |
| C=CC(=O)N[C@H]1CC[C@H](NC(=O)c2sc3nccc4c3c2NC(=O)N4c2ccc(Oc3ccccc3)cc2C)CC1 [Example 13, N-((1R,4R)-4-Acrylamidocyclohexyl)-5-(2-methyl-4-phenoxyphenyl)-4-oxo-4,5-dihydro-3H-1-thia-3,5,8-triazaacenaphthylene-2-carboxamide] | 6.94 |
| Cc1cc(Oc2ccccc2)ccc1N1C(=O)Nc2c(C(=O)N[C@H]3CC[C@H](O)CC3)sc3nccc1c23 [Example 15, N-((1R,4R)-4-Hydroxycyclohexyl)-5-(2-methyl-4-phenoxyphenyl)-4-oxo-4,5-dihydro-3H-1-thia-3,5,8-triazaacenaphthylene-2-carboxamide] | 7.21 |
| Cc1cc(Oc2ccccc2)ccc1N1C(=O)Nc2c(C(=O)N[C@H]3CC[C@@H](O)CC3)sc3nccc1c23 [Example 16, N-((1S,4S)-4-Hydroxycyclohexyl)-5-(2-methyl-4-phenoxyphenyl)-4-oxo-4,5-dihydro-3H-1-thia-3,5,8-triazaacenaphthylene-2-carboxamide] | 7.14 |
| CO[C@H]1CC[C@H](NC(=O)c2sc3nccc4c3c2NC(=O)N4c2ccc(Oc3ccccc3)cc2C)CC1 [Example 18, N-((1R,4R)-4-Methoxycyclohexyl)-5-(2-methyl-4-phenoxyphenyl)-4-oxo-4,5-dihydro-3H-1-thia-3,5,8-triazaacenaphthylene-2-carboxamide] | 6.99 |
| Cc1cc(Oc2ccccc2)ccc1N1C(=O)Nc2c(C(=O)N[C@H]3CC[C@@H](NC(=O)/C(C#N)=C/C4CC4)CC3)sc3nccc1c23 [Example 19, N-((1S,4S)-4-((E)-2-Cyano-3-cyclopropylacrylamido)cyclohexyl)-5-(2-methyl-4-phenoxyphenyl)-4-oxo-4,5-dihydro-3H-1-thia-3,5,8-triazaacenaphthylene-2-carboxamide] | 6.63 |
| Cc1cc(Oc2ccccc2)ccc1N1C(=O)Nc2c(C(=O)N[C@H]3CCC[C@@H]3O)sc3nccc1c23 [Example 20, N-((1S,2S)-2-Hydroxycyclopentyl)-5-(2-methyl-4-phenoxyphenyl)-4-oxo-4,5-dihydro-3H-1-thia-3,5,8-triazaacenaphthylene-2-carboxamide] | 7.02 |
| CN[C@@H]1CCC[C@H]1NC(=O)c1sc2nccc3c2c1NC(=O)N3c1ccc(Oc2ccccc2)cc1C [Example 21, 5-(2-Methyl-4-phenoxyphenyl)-N-((1R,2R)-2-(methylamino)cyclopentyl)-4-oxo-4,5-dihydro-3H-1-thia-3,5,8-triazaacenaphthylene-2-carboxamide] | 6.85 |
| Cc1cc(Oc2ccccc2)ccc1N1C(=O)Nc2c(C(=O)N[C@@H]3CCC[C@H]3N)sc3nccc1c23 [Example 22, N-((1R,2R)-2-Aminocyclopentyl)-5-(2-methyl-4-phenoxyphenyl)-4-oxo-4,5-dihydro-3H-1-thia-3,5,8-triazaacenaphthylene-2-carboxamide] | 7.13 |
| Cc1cc(Oc2ccccc2)ccc1N1C(=O)Nc2c(C(=O)N[C@H]3CC[C@@H](NC#N)CC3)sc3nccc1c23 [Example 23, N-((1S,4S)-4-Cyanamidocyclohexyl)-5-(2-methyl-4-phenoxyphenyl)-4-oxo-4,5-dihydro-3H-1-thia-3,5,8-triazaacenaphthylene-2-carboxamide] | 6.77 |

same assay, conditions: read-out: BTK_I_binding pIC50 (converted)

| Structure (SMILES) | IC50 [nM] |
| --- | --- |
| Cc1cc(CC(C)C)ncc1N1C(=O)Nc2c(C(=O)N[C@@H]3CCC[C@@H]3NC(=O)/C=C/CNC(=O)CCCC(=O)NCCCOCCOCCOCCCNC(=O)CCCC[C@@H]3SC[C@@H]4NC(=O)N[C@@H]43)sc3nccc1c23 (single isomer, unassigned) [Example 464] | 229 |
| Cc1cc(Oc2ccccc2)ccc1N1C(=O)Nc2c(C(=O)N[C@@H]3CCC[C@@H]3N(C)C)sc3nccc1c23 [Example 17, N-((1R,2S)-2-(Dimethylamino)cyclopentyl)-5-(2-methyl-4-phenoxyphenyl)-4-oxo-4,5-dihydro-3H-1-thia-3,5,8-triazaacenaphthylene-2-carboxamide] | 120 |
